Measured values reported in patent US6846817B2 (Regents of the University of Minnesota, priority 1999, dated 2005).
Counter-ions that a name gives are not always drawn. Like-named read-outs stand apart in the source and are kept apart here.

Columns and labels:
[1] = molecular target: α4β2 nicotine receptor (Rattus norvegicus, UniProt P09483+P12390); experiment: Test A: [3H]cytisine binding
[2] = molecular target: dopamine D2 receptors (Homo sapiens, UniProt P14416); experiment: Binding to dopamine D2 receptors
[3] = molecular target: dopamine transporter (Homo sapiens, UniProt Q01959); experiment: Binding to dopamine transporter sites
[4] = molecular target: serotonin transporter (Homo sapiens, UniProt P31645); experiment: Binding to serotonin transporter sites
[5] = test system: nicotinic acetylcholine receptor (nAChR); experiment: Test C: 86Rb+ efflux from rat cortical synaptosomes; assay type: cell-based
[6] = test system: striatal synaptosomes; experiment: Test D: striatal [3H]dopamine release; assay type: cell-based, rat
[7] = test system: hippocampal synaptosomes; experiment: Test E: [3H]ACh release; assay type: cell-based, rat
Experimental: Drug-induced release of [^3H]ACh from hippocampal synaptosomes was measured as described by Sullivan et al. (1997). (J. Pharmacol. Exptl. Ther. 283: 235-246). The F4 synaptosomal fraction was washed with Kreb's buffer containing 118.5 mM NaCl, 25 mM NaHCO3, 1.2 mM KCl, 1.2 mM KH2PO4, 2.5 mM CaCl2, 2.5 mM MgCl2, 10 mM glucose gassed with 95% O2/5% CO2 to pH 7.4 and re-suspended at 1 mg protein/mL. The synaptosomes were loaded with [^3H]choline by incubation with 0.8 μM [^3H]choline (2 Ci/mmol). Aliquots of the incubation mixture were then loaded into the perfusion chamber of a Brandell harvester and perfused with Kreb's buffer (37° C.) at a flow rate of 0.25 mL/min. Three-minute fractions were collected and measured for radioactivity. Drugs for study were administered as 20-s pulses. The [^3H]ACh release evoked by study compounds was normalized to (−)-nicotine-evoked release and to the total radioactivity accumulated by synaptosomes. Evoked release of [^3H]ACh from rat hippocampal synaptosomes was measured as the area under the peak above base release. The EC50 value is determined by nonlinear least squares regression analysis.

[8] = test system: ovariectomized female rats; experiment: Test F: object recognition memory test; assay type: in vivo, rat
[9] = molecular target: α4β2 nicotinic acetylcholine receptor subtype (Rattus norvegicus, UniProt P09483+P12390); details: cited from earlier work
[10] = molecular target: neuronal [3H]-cytisine binding site (Homo sapiens, UniProt P17787+P43681); details: read-out: Ki, neuronal [3H]-cytisine binding site; cited from earlier work
[11] = test system: nerve-injured mice; experiment: Test G: Chung model of neuropathic pain, inhibition of tactile sensitivity; assay type: in vivo, mouse
Experimental: After hemostasis is confirmed, the wound is sutured with 3-0 silk thread and the skin closed with sterile wound clips. The animals are fully mobile within thirty minutes of cessation of anesthetic. As a control, in a separate group of animals, a sham surgery identical to the above (but without nerve ligation) is performed. Nociception is evaluated by responsiveness to multiple applications (10 per hindpaw) of a single vF filament to the plantar surface of each hind paw. When the stimulus is of sufficient force, the mouse will lick, withdraw and/or shake the paw; this action represents the behavioral endpoint. In nerve-injured mice, a vF filament (#3.61) exerting 3.3 mN of force elicited 66±1.3% responsiveness on the paw ipsilateral to the injury.
Inhibition of Tactile Sensitivity. Varying doses of the compounds are administered to test for inhibition of tactile sensitivity. Percent inhibition is determined relative to the mean number of paw withdrawals (PW) elicited by force and according to the following equation: [formula] Each mouse serves as its own control.
Three groups of animals were used for this experiment. Animals in each group received an intrathecal injection of physiological saline to assess the control response. […] The responses were assessed as described above.

[12] = test system: Male Wistar rats; details: rat, in vivo
[13] = molecular target: α7 subtype (Homo sapiens, UniProt P36544); details: read-out: Ki at the α7 subtype; cited from earlier work
[14] = test system: nicotinic acetylcholine receptor as PC12 cells; details: cited from earlier work
[15] = molecular target: human muscle nicotinic acetylcholine receptor subtype (Homo sapiens, UniProt P02708+P07510+P11230+Q07001); details: cited from earlier work
[16] = rat brain, compounds tested in racemic form, read-out: Ki-[3H]Cytisine

serotonin transporter, sequence (P31645 whole entry): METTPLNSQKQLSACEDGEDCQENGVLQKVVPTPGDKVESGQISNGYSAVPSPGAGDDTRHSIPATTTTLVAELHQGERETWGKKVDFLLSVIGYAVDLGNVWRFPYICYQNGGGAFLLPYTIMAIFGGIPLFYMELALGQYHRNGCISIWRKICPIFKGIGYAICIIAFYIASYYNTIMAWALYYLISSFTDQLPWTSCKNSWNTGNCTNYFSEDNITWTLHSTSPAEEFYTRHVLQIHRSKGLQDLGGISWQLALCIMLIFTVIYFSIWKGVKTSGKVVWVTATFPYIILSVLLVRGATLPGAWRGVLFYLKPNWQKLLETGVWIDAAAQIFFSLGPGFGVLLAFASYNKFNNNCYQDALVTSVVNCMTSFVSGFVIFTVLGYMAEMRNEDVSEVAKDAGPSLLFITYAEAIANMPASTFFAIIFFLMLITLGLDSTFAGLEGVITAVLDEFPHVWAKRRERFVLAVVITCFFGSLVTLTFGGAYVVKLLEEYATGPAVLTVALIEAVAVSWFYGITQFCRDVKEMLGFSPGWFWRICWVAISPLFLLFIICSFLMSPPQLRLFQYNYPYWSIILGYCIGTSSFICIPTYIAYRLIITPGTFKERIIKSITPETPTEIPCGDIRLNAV
dopamine transporter, sequence (Q01959 whole entry): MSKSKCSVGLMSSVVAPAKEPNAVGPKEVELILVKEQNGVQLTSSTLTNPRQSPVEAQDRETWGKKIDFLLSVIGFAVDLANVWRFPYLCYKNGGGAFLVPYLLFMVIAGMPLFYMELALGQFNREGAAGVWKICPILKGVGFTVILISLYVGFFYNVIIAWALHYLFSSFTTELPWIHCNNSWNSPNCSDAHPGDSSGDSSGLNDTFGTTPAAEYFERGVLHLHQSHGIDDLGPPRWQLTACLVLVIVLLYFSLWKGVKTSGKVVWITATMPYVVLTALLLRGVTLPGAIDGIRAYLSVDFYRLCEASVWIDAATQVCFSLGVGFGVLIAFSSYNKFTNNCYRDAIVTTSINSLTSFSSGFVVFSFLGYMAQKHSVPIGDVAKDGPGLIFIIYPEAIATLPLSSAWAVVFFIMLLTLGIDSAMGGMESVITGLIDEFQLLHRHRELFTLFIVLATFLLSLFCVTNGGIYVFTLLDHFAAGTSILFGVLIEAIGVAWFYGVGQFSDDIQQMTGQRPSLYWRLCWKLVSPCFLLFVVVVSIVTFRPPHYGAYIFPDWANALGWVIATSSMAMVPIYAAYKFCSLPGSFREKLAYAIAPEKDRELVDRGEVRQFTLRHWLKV
α4β2 nicotine receptor, sequence (P09483 31-630): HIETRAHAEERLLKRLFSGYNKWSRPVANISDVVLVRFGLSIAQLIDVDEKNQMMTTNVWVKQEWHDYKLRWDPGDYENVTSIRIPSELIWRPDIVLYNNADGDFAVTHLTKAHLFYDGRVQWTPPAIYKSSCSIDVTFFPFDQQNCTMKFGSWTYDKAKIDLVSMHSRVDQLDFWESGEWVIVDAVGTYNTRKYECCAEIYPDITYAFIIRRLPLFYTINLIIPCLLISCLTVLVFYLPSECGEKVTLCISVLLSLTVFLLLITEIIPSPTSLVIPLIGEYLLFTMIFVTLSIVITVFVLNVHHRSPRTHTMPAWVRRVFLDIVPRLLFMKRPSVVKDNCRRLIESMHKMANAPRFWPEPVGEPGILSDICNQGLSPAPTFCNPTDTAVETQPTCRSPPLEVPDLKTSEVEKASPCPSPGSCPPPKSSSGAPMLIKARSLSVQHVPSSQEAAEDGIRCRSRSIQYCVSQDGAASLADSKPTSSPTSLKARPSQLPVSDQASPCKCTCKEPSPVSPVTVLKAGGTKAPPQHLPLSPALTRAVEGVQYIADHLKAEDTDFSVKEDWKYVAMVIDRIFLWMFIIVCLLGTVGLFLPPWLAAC
α4β2 nicotine receptor, sequence (P12390 25-500): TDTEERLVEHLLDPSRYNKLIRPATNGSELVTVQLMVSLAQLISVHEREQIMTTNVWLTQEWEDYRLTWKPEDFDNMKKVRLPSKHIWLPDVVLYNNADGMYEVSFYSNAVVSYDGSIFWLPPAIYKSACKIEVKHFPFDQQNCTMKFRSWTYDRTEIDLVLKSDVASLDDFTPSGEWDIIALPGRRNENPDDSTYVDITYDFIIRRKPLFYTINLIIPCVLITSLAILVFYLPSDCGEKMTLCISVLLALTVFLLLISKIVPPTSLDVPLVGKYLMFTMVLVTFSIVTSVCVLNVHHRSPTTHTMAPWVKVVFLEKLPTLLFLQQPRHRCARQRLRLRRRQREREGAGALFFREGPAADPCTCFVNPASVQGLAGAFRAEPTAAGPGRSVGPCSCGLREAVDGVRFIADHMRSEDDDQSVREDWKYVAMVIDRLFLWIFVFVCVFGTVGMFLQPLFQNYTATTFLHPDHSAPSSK
dopamine D2 receptors, sequence (P14416 whole entry): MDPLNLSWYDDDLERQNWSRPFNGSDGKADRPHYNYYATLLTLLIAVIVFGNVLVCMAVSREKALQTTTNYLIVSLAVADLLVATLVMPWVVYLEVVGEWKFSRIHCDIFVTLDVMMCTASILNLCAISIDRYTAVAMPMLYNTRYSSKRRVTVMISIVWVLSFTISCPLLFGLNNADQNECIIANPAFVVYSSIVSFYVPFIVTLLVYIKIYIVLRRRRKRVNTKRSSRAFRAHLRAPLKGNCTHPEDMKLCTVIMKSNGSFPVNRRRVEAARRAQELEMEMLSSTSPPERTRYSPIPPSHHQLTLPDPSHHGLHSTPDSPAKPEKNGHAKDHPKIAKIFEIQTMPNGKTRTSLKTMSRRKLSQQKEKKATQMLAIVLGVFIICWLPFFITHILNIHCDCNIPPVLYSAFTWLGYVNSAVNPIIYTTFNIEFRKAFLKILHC
human muscle nicotinic acetylcholine receptor subtype, sequence (P11230 24-501): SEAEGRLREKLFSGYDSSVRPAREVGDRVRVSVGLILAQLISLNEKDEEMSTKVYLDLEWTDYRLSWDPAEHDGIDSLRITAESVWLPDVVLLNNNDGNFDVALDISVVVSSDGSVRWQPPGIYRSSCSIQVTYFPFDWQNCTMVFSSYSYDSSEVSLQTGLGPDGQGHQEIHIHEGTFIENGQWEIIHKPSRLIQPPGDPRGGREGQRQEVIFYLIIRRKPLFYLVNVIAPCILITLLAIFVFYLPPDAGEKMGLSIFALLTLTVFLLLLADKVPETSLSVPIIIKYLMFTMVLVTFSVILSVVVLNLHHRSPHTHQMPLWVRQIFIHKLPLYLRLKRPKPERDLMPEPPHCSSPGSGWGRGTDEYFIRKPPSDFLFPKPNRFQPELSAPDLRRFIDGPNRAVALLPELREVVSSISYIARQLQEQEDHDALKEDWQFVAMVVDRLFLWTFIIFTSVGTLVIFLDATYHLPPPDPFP
human muscle nicotinic acetylcholine receptor subtype, sequence (Q07001 22-517): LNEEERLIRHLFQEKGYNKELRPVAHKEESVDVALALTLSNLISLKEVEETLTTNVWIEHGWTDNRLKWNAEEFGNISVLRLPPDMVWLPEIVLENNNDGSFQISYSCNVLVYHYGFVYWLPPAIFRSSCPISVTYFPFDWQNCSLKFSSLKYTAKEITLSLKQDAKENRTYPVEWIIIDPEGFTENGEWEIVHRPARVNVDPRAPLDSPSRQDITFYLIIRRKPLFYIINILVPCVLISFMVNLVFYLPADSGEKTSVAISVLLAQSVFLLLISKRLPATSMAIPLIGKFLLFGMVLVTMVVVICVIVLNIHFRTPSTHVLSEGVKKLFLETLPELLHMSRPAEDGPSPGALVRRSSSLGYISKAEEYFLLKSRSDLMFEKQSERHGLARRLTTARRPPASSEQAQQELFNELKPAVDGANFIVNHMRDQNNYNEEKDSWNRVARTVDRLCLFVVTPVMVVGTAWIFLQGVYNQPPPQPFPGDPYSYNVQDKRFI
human muscle nicotinic acetylcholine receptor subtype, sequence (P02708 21-457): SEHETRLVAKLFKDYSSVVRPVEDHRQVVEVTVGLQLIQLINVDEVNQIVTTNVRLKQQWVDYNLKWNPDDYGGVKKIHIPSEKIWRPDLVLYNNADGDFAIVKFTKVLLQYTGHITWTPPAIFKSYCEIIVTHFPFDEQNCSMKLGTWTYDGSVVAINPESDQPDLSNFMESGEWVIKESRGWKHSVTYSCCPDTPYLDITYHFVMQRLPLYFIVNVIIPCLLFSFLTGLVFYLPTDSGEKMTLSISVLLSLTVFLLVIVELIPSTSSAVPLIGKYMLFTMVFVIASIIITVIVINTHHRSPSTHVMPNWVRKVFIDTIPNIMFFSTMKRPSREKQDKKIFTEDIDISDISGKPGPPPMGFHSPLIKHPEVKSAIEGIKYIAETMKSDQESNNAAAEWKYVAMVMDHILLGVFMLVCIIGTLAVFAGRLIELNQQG
human muscle nicotinic acetylcholine receptor subtype, sequence (P07510 23-517): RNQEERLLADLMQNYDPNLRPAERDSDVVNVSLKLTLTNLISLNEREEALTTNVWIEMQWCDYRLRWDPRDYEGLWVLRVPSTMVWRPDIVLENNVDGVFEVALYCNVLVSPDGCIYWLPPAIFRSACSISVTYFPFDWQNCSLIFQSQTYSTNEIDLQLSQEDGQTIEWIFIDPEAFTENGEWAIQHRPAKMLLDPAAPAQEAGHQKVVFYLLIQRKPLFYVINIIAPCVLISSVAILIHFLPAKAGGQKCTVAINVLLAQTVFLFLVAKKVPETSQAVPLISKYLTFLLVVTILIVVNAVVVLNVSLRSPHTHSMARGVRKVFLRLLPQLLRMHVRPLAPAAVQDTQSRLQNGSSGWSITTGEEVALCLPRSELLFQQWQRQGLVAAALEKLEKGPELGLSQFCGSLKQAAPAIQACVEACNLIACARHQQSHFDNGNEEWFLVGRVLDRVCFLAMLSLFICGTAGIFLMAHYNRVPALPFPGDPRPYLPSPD
α4β2 nicotinic acetylcholine receptor subtype, sequence (P09483 31-630): as the sequence (P09483 31-630) above
α4β2 nicotinic acetylcholine receptor subtype, sequence (P12390 25-500): as the sequence (P12390 25-500) above

**Q.** For `CN1CCCCC1CC1=Cc2ccccc2C1` (racemic) [Compound 13, 1-Methyl-2-(2-indenyl)methylpiperidine hydrochloride], which Ki [1, 16] is on record?
**A.** 7.91 µM

**Q.** With `COc1ccc2c(c1)CC(CC1CCCCN1C)=C2` (racemic) [Compound 14, 1-Methyl-2-(6-methoxyinden-2-yl)methylpiperidine hydrochloride] as the compound, how does the Ki [1, 16] read?
**A.** 8.95 µM

**Q.** With `CN1CCCCC1CC1=Cc2ccc(O)cc2C1` (racemic) [Compound 15, 1-Methyl-2-(6-hydroxyinden-2-yl)methylpiperidine hydrochloride] as the compound, how does the Ki [1, 16] read?
**A.** > 10 µM

**Q.** Which melting point does the source give for `CN1CCCCC1C1CCc2ccccc2O1` (single isomer, unassigned) (as salt: salt) [Compound 1, erythro-2-(1-Methylpiperidin-2-yl)chroman] here?
**A.** 164 to 166 °C

**Q.** For `CN1CCCCC1C1CCc2ccccc2O1` (single isomer, unassigned) [Compound 1, erythro-2-(1-Methylpiperidin-2-yl)chroman], which Ki [2] is on record?
**A.** > 10 µM

**Q.** What about the Ki [3] of the same compound?
**A.** > 10 µM

**Q.** And the Ki [4]?
**A.** > 10 µM

**Q.** And the “peak response of 86Rb+ release (in words)” value [5]?
**A.** could match the peak response of S-(−)-nicotine

**Q.** What about the “potency to stimulate the release of 86Rb+ (in words)” value [5] of the same compound?
**A.** lower potency

**Q.** And the “stimulation of [3H]dopamine release (in words)” value [6]?
**A.** failed to stimulate the release

**Q.** Which results are given for `CN1CCCCC1C1CCc2ccc(O)cc2O1` (single isomer, unassigned) [Compound 8, threo-7-Hydroxy-2-(1-methylpiperidin-2-yl)chroman]?
**A.** Ki [2]: > 10 µM; Ki [3]: > 10 µM; Ki [4]: > 10 µM

**Q.** Which “stimulation of [3H]dopamine release (in words)” value ([6]; FIG. 10, compound 1 at doses of up to 10 μM) does the source give for `CN1CCCC1C1CCc2ccc(O)cc2O1` (single isomer, unassigned) [Compound 11, erythro-7-Hydroxy-2-(1-methylpyrrolidin-2-yl)chroman] here?
**A.** stimulates the release

**Q.** And the “[3H]Dopamine release” value ([6]; Table 2 summary in words)?
**A.** High intrinsic activity

**Q.** And the “[3H]ACh release” value ([7]; Table 2 summary in words)?
**A.** No intrinsic activity

**Q.** And the “stimulation of [3H]ACh release (in words)” value ([7]; cortical synaptosomes as worded, FIG. 11)?
**A.** little intrinsic activity

**Q.** What about the “exploration times versus saline-treated controls (in words)” value ([8]; exploration phase, 1 μmol/kg/day) of the same compound?
**A.** not significantly different

**Q.** And the “time spent exploring the new object” value ([8]; recognition phase four hours after exploration, after 7 days s.c. osmotic mini pump, compound 11 1 μmol/kg/day, ARICEPT 1 mg/kg/day)?
**A.** 80.5±5 % (SEM)

**Q.** With `Cc1ncccc1OC[C@@H]1CCCN1` [ABT-089 (S)] as the compound, how does the “less potent than ABT-594 as an inhibitor of [3H]-nicotine binding” value [9] read?
**A.** about 300 fold

**Q.** Which Ki [10] does the source give for `Cc1cc([C@@H]2CCCN2C)on1` [ABT-418] here?
**A.** 4.5 nM

**Q.** With `COc1cc2c(cc1OC)C(=O)C(CC1CCN(Cc3ccccc3)CC1)C2` (centres unmarked) [ARICEPT, reference compound] as the compound, how does the “time spent exploring the new object” value ([8]; rat, in vivo) read?
**A.** 60.1±5.4 % (SEM)

**Q.** Which results are given for `CN1CCCCC1C1CCc2ccc(O)cc2O1` (stereo not drawn) [Compound 3, erythro-7-Hydroxy-2-(1-methylpiperidin-2-yl)chroman]?
**A.** Ki [2]: > 10 µM; Ki [3]: > 10 µM; Ki [4]: > 10 µM; potency to stimulate the release of 86Rb+ (in words) ([5]; compound 3 at 1, 5, 10 and 100 μM, compound 1 at 10 and 100 μM, versus S-(−)-nicotine, FIG. 9): comparable potency; concentration at which peak effects on [3H]dopamine release are obtained [6]: ~10 µM; effect on K+-evoked release of [3H]dopamine (in words) [6]: appeared to suppress; stimulation of [3H]dopamine release (in words) [6]: dose-dependent stimulation; stimulation of [3H]ACh release (in words) [7]: can stimulate the release; inhibition of tactile sensitivity (in words) ([11]; intrathecal 30, 60 and 100 pmol): dose-dependent inhibition; inhibition of tactile sensitivity ([11]; intrathecal, highest dose tested 100 pmol, FIG. 13): 60%; time of death post-injection ([12]; male, Wistar, ip): ≤ 4 min; lethal effects antagonized by mecamylamine pretreatment [12]: three of the four animals; observed effect after administration ([12]; ip): severe convulsions

**Q.** With `CN1CCCCC1C1CCc2ccc(O)cc2O1` (stereo not drawn) [Compound 4, erythro-7-Hydroxy-2-(1-methylpiperidin-2-yl)chroman] as the compound, how does the “86Rb+ efflux” value [5] read?
**A.** High intrinsic activity

**Q.** What about the “[3H]Dopamine release” value [6] of the same compound?
**A.** Low to moderate activity

**Q.** What about the “[3H]ACh release” value [7] of the same compound?
**A.** High intrinsic activity

**Q.** Which results are given for `CN1CCCCC1C1CCc2c(O)cccc2O1` (stereo not drawn) [Compound 5, erythro-5-Hydroxy-2-(1-methylpiperidin-2-yl)chroman]?
**A.** Ki [2]: > 10 µM; Ki [3]: > 10 µM; Ki [4]: > 10 µM

**Q.** Which results are given for `O=c1cccc2n1C[C@@H]1CNC[C@H]2C1` [Cytisine, reference compound]?
**A.** Ki ([1]; Ki-[3H]Cytisine): 0.0009 µM; Ki ([1]; read-out: Ki-[3H]Cytisine): 0.00278 µM

**Q.** With `CNCC/C=C/c1cccnc1` [RJR-2403] as the compound, how does the Ki [13] read?
**A.** 36 µM

**Q.** What about the “receptor activation (in words)” value [14] of the same compound?
**A.** does not significantly activate

**Q.** What about the “receptor activation (in words)” value [15] of the same compound?
**A.** does not significantly activate

**Q.** For `CN1CCC[C@H]1c1cccnc1` [S-(−)-nicotine, reference compound], which “stimulation of [3H]dopamine release (in words)” value [6] is on record?
**A.** dose-dependent
